pIC50: −log10 of the molar value.
Tested on: mutant Huntington (HTT) protein
Test: HTT Mutant HTRF iPSC assay (mHTT protein lowering)
Format: cell-based
Conditions: human iPSC derived from a HTT patient with a poly-Q49 mutation

Cc1cn2nc(-c3cc(F)c4nc([C@H]5CC[C@]6(CCNC6)CC5)nn4c3)cc(C)c2n1 [Compound 451, (5s,8s)-8-(6-(2,8-dimethylimidazo[1,2-b]pyridazin-6-yl)-8-fluoro-[1,2,4]triazolo[1,5-a]pyridin-2-yl)-2-azaspiro[4.5]decane]
pIC50: 6.00 to 7.00

Cc1cn2nc(-c3cc(F)c4nc([C@H]5CC[C@@]6(CCNC6)CC5)nn4c3)cc(C)c2n1 [Compound 452, (5r,8r)-8-(6-(2,8-dimethylimidazo[1,2-b]pyridazin-6-yl)-8-fluoro-[1,2,4]triazolo[1,5-a]pyridin-2-yl)-2-azaspiro[4.5]decane]
pIC50: 6.00 to 7.00

Cc1cn2nc(-c3cc(F)c4nc([C@H]5[C@@H]6CN(C)C[C@@H]65)nn4c3)cc(C)c2n1 [Compound 453, 6-(2,8-dimethylimidazo[1,2-b]pyridazin-6-yl)-8-fluoro-2-[(1S,5R)-3-methyl-3-azabicyclo[3.1.0]hexan-6-yl]-[1,2,4]triazolo[1,5-a]pyridine]
pIC50: 6.00 to 7.00

Cc1cn2nc(-c3cc(F)c4nc(C5CCNC6(CC6)C5)nn4c3)cc(C)c2n1 (stereo not shown) [Compound 454, 6-(2,8-dimethylimidazo[1,2-b]pyridazin-6-yl)-8-fluoro-2-(4-azaspiro[2.5]octan-7-yl)-[1,2,4]triazolo[1,5-a]pyridine]
pIC50: 6.00 to 7.00

Cc1cn2nc(-c3cc(F)c4nc([C@H]5[C@@H]6CNC[C@@H]65)oc4c3)cc(C)c2n1 [Compound 455, 2-((1R,5S,6r)-3-azabicyclo[3.1.0]hexan-6-yl)-6-(2,8-dimethylimidazo[1,2-b]pyridazin-6-yl)-4-fluorobenzo[d]oxazole]
pIC50: 6.00 to 7.00

Cc1cn2nc(-c3cc(F)c4nc(C5CCN(C)CC5)oc4c3)cc(C)c2n1 [Compound 456, 6-(2,8-dimethylimidazo[1,2-b]pyridazin-6-yl)-4-fluoro-2-(1-methylpiperidin-4-yl)benzo[d]oxazole]
pIC50: 6.00 to 7.00

Cc1cn2nc(-c3cc(F)c4nc(C5CC6(CCN(C)CC6)C5)oc4c3)cc(C)c2n1 [Compound 458, 6-(2,8-dimethylimidazo[1,2-b]pyridazin-6-yl)-4-fluoro-2-(7-methyl-7-azaspiro[3.5]nonan-2-yl)benzo[d]oxazole]
pIC50: 6.00 to 7.00

Cc1cn2nc(-c3cc(F)c4nc(CC5CCN(C)CC5)oc4c3)cc(C)c2n1 [Compound 459, 6-(2,8-dimethylimidazo[1,2-b]pyridazin-6-yl)-4-fluoro-2-((1-methylpiperidin-4-yl)methyl)benzo[d] oxazole]
pIC50: > 7.00

Cc1cn2nc(-c3cc(F)c4nc(N5CC6CN(C)CC6C5)oc4c3)cc(C)c2n1 (stereo not shown) [Compound 466, 6-(2,8-dimethylimidazo[1,2-b]pyridazin-6-yl)-4-fluoro-2-(5-methylhexahydropyrrolo [3,4-c]pyrrol-2(1H)-yl)benzo[d]oxazole]
pIC50: 6.00 to 7.00

Cc1cn2nc(-c3cc(F)c4nc(N(C)C5CC(C)(C)NC(C)(C)C5)oc4c3)cc(C)c2n1 [Compound 467, 6-(2,8-dimethylimidazo[1,2-b]pyridazin-6-yl)-4-fluoro-N-methyl-N-(2,2,6,6-tetramethylpiperidin-4-yl)benzo[d]oxazol-2-amine]
pIC50: 6.00 to 7.00

Cc1cn2nc(-c3cc(F)c4nc(N5CCC6(CCN(C)CC6)C5)oc4c3)cc(C)c2n1 [Compound 468, 6-(2,8-dimethylimidazo[1,2-b]pyridazin-6-yl)-4-fluoro-2-(8-methyl-2,8-diazaspiro[4.5]decan-2-yl)benzo[d]oxazole]
pIC50: > 7.00

Cc1cn2nc(-c3cc(F)c4nc(N(C)C5CCN(C(C)C)CC5)oc4c3)cc(C)c2n1 [Compound 469, 6-(2,8-dimethylimidazo[1,2-b]pyridazin-6-yl)-4-fluoro-N-(1-isopropylpiperidin-4-yl)-N-methylbenzo[d]oxazol-2-amine]
pIC50: 6.00 to 7.00

Cc1cn2nc(-c3cc(F)c4nc(N5CCC6(CCN(C)C6)CC5)oc4c3)cc(C)c2n1 [Compound 470, 6-(2,8-dimethylimidazo[1,2-b]pyridazin-6-yl)-4-fluoro-2-(2-methyl-2,8-diazaspiro[4.5]decan-8-yl)benzo[d]oxazole]
pIC50: > 7.00

CCN1CCC(Nc2nc3c(F)cc(-c4cc(C)c5nc(C)cn5n4)cc3o2)CC1C (stereo not shown) [Compound 471, 6-(2,8-dimethylimidazo[1,2-b]pyridazin-6-yl)-N-(1-ethyl-2-methylpiperidin-4-yl)-4-fluorobenzo[d]oxazol-2-amine]
pIC50: > 7.00

Cc1cn2nc(-c3cc(F)c4nc(N5CCC6(CN(C)C6)C5)oc4c3)cc(C)c2n1 [Compound 472, 6-(2,8-dimethylimidazo[1,2-b]pyridazin-6-yl)-4-fluoro-2-(2-methyl-2,6-diazaspiro[3.4]octan-6-yl)benzo[d]oxazole]
pIC50: 6.00 to 7.00

Cc1cn2nc(-c3cc(F)c4nc(N(C)C5CCN(C)C(C)C5)oc4c3)cc(C)c2n1 (stereo not shown) [Compound 473, 6-(2,8-dimethylimidazo[1,2-b]pyridazin-6-yl)-N-(1,2-dimethylpiperidin-4-yl)-4-fluoro-N-methylbenzo[d]oxazol-2-amine]
pIC50: 6.00 to 7.00

Cc1cn2nc(-c3cc(F)c4nc(N5CCC(C)(CN(C)C)C5)oc4c3)cc(C)c2n1 (stereo not shown) [Compound 474, 1-(1-(6-(2,8-dimethylimidazo[1,2-b]pyridazin-6-yl)-4-fluorobenzo[d]oxazol-2-yl)-3-methylpyrrolidin-3-yl)-N,N-dimethylmethanamine]
pIC50: 6.00 to 7.00

Cc1cn2nc(-c3cc(F)c4nc(N5CCC(N(C)C)CC5)oc4c3)cc(C)c2n1 [Compound 475, 1-(6-(2,8-dimethylimidazo[1,2-b]pyridazin-6-yl)-4-fluorobenzo[d]oxazol-2-yl)-N,N-dimethylpiperidin-4-amine]
pIC50: > 7.00

Cc1cn2nc(-c3cc(F)c4nc(N5CCC(N6CCCC6)C5)oc4c3)cc(C)c2n1 (stereo not shown) [Compound 476, 2-([1,3′-bipyrrolidin]-1′-yl)-6-(2,8-dimethylimidazo[1,2-b]pyridazin-6-yl)-4-fluorobenzo[d]oxazole]
pIC50: 6.00 to 7.00

Cc1cn2nc(-c3cc(F)c4nc(N5CCC(N6CCCC6)CC5)oc4c3)cc(C)c2n1 [Compound 477, 6-(2,8-dimethylimidazo[1,2-b]pyridazin-6-yl)-4-fluoro-2-(4-(pyrrolidin-1-yl)piperidin-1-yl)benzo[d]oxazole]
pIC50: 6.00 to 7.00

Cc1cn2nc(-c3cc(F)c4nc(NC5CCN(C6CCC6)CC5)oc4c3)cc(C)c2n1 [Compound 478, N-(1-cyclobutylpiperidin-4-yl)-6-(2,8-dimethylimidazo[1,2-b]pyridazin-6-yl)-4-fluorobenzo[d]oxazol-2-amine]
pIC50: > 7.00

CCN1CCC(Nc2nc3c(F)cc(-c4cc(C)c5nc(C)cn5n4)cc3o2)CC1 [Compound 479, 6-(2,8-dimethylimidazo[1,2-b]pyridazin-6-yl)-N-(1-ethylpiperidin-4-yl)-4-fluorobenzo[d]oxazol-2-amine]
pIC50: > 7.00

COCCN1CCC(Nc2nc3c(F)cc(-c4cc(C)c5nc(C)cn5n4)cc3o2)CC1 [Compound 480, 6-(2,8-dimethylimidazo[1,2-b]pyridazin-6-yl)-4-fluoro-N-(1-(2-methoxyethyl)piperidin-4-yl)benzo[d]oxazol-2-amine]
pIC50: > 7.00

Cc1cn2nc(-c3cc(F)c4nc(NC5CCN(C6CCOC6)CC5)oc4c3)cc(C)c2n1 (stereo not shown) [Compound 481, 6-(2,8-dimethylimidazo[1,2-b]pyridazin-6-yl)-4-fluoro-N-(1-(tetrahydrofuran-3-yl)piperidin-4-yl)benzo[d]oxazol-2-amine]
pIC50: > 7.00

Cc1cn2nc(-c3cc(F)c4nc(NC5CCN6CCCC6C5)oc4c3)cc(C)c2n1 (stereo not shown) [Compound 482, 6-(2,8-dimethylimidazo[1,2-b]pyridazin-6-yl)-4-fluoro-N-(octahydroindolizin-7-yl)benzo[d]oxazol-2-amine]
pIC50: > 7.00

Cc1cn2nc(-c3cc(F)c4nc(N5CCC(CN6CCCC6)C5)oc4c3)cc(C)c2n1 (stereo not shown) [Compound 483, 6-(2,8-dimethylimidazo[1,2-b]pyridazin-6-yl)-4-fluoro-2-(3-(pyrrolidin-1-ylmethyl)pyrrolidin-1-yl)benzo[d]oxazole]
pIC50: 6.00 to 7.00

Cc1cn2nc(-c3cc(F)c4nc(NC5CC(C)NC(C)C5)oc4c3)cc(C)c2n1 (stereo not shown) [Compound 484, 6-(2,8-dimethylimidazo[1,2-b]pyridazin-6-yl)-N-(2,6-dimethylpiperidin-4-yl)-4-fluorobenzo[d]oxazol-2-amine]
pIC50: > 7.00

Cc1cn2nc(-c3cc(F)c4nc(NC5CCNC(C)(C)C5)oc4c3)cc(C)c2n1 (stereo not shown) [Compound 485, 6-(2,8-dimethylimidazo[1,2-b]pyridazin-6-yl)-N-(2,2-dimethylpiperidin-4-yl)-4-fluorobenzo[d]oxazol-2-amine]
pIC50: > 7.00

Cc1cn2nc(-c3cc(F)c4nc(N5CCC(CN(C)CC6CC6)C5)oc4c3)cc(C)c2n1 (stereo not shown) [Compound 489, 1-cyclopropyl-N-((1-(6-(2,8-dimethylimidazo[1,2-b]pyridazin-6-yl)-4-fluorobenzo[d]oxazol-2-yl)pyrrolidin-3-yl)methyl)-N-methylmethanamine]
pIC50: > 7.00

Cc1cn2nc(-c3cc(F)c4nc(N5CCCC(N6CCCCC6)C5)oc4c3)cc(C)c2n1 (stereo not shown) [Compound 490, 2-([1,3′-bipiperidin]-1′-yl)-6-(2,8-dimethylimidazo[1,2-b]pyridazin-6-yl)-4-fluorobenzo[d]oxazole]
pIC50: 6.00 to 7.00

Cc1cn2nc(-c3cc(F)c4nc(N5CCC(CN(C)C)C5)oc4c3)cc(C)c2n1 (stereo not shown) [Compound 491, 1-(1-(6-(2,8-dimethylimidazo[1,2-b]pyridazin-6-yl)-4-fluorobenzo[d]oxazol-2-yl)pyrrolidin-3-yl)-N,N-dimethylmethanamine]
pIC50: 6.00 to 7.00

CCC1(N(C)C)CCN(c2nc3c(F)cc(-c4cc(C)c5nc(C)cn5n4)cc3o2)CC1 [Compound 492, 1-(6-(2,8-dimethylimidazo[1,2-b]pyridazin-6-yl)-4-fluorobenzo[d]oxazol-2-yl)-4-ethyl-N,N-dimethylpiperidin-4-amine]
pIC50: > 7.00

Cc1cn2nc(-c3cc(F)c4nc(N5CCC56CCN(C)CC6)oc4c3)cc(C)c2n1 [Compound 493, 6-(2,8-dimethylimidazo[1,2-b]pyridazin-6-yl)-4-fluoro-2-(7-methyl-1,7-diazaspiro[3.5]nonan-1-yl)benzo[d]oxazole]
pIC50: 6.00 to 7.00

Cc1cn2nc(-c3cc(F)c4nc(N5CCC(N6CCC6)CC5)oc4c3)cc(C)c2n1 [Compound 494, 2-(4-(azetidin-1-yl)piperidin-1-yl)-6-(2,8-dimethylimidazo[1,2-b]pyridazin-6-yl)-4-fluorobenzo[d]oxazole]
pIC50: 6.00 to 7.00
